Several values for one entry are separate records, joined by “and”; a condition that tells them apart may be missing. Identical values can stand only once.
Assay: xn = mol fraction of the nth substance listed
Settings: Gas, Buoyancy - hydrostatic balance with magnetic suspension - two sinkers

C [methane] + CCC
Settings | mass density
248.15 K, 96.6 kPa, x1 = 0.2658 | 1.7468 kg/m3
248.15 K, 120.09 kPa, x1 = 0.5069 | 1.764 kg/m3 and 1.7641 kg/m3 and 1.7642 kg/m3
248.15 K, 141.7 kPa, x1 = 0.2658 | 2.5863 kg/m3 and 2.5861 kg/m3 and 2.5862 kg/m3
248.15 K, 183.4 kPa, x1 = 0.5069 | 2.7166 kg/m3 and 2.7162 kg/m3 and 2.7167 kg/m3
248.15 K, 184.56 kPa, x1 = 0.2658 | 3.3989 kg/m3 and 3.3987 kg/m3
248.15 K, 220.8 kPa, x1 = 0.2658 | 4.0983 kg/m3 and 4.0981 kg/m3 and 4.0981 kg/m3
248.15 K, 244.4 kPa, x1 = 0.5069 | 3.6494 kg/m3 and 3.6497 kg/m3 and 3.6499 kg/m3
248.15 K, 251.13 kPa, x1 = 0.2658 | 4.6927 kg/m3 and 4.6924 kg/m3 and 4.6926 kg/m3
248.15 K, 271.98 kPa, x1 = 0.2658 | 5.1061 kg/m3
248.15 K, 271.99 kPa, x1 = 0.2658 | 5.1059 kg/m3
248.15 K, 275.99 kPa, x1 = 0.2658 | 5.186 kg/m3 and 5.1858 kg/m3 and 5.1858 kg/m3
248.15 K, 303.31 kPa, x1 = 0.5069 | 4.5661 kg/m3 and 4.566 kg/m3 and 4.5662 kg/m3
248.15 K, 360.5 kPa, x1 = 0.5069 | 5.4703 kg/m3 and 5.4702 kg/m3 and 5.4702 kg/m3
248.15 K, 424.87 kPa, x1 = 0.5069 | 6.5058 kg/m3 and 6.5052 kg/m3 and 6.5054 kg/m3
248.16 K, 96.6 kPa, x1 = 0.2658 | 1.7471 kg/m3 and 1.747 kg/m3
248.16 K, 390.03 kPa, x1 = 0.7498 | 4.4827 kg/m3
248.16 K, 390.04 kPa, x1 = 0.7498 | 4.4825 kg/m3 and 4.4826 kg/m3
248.16 K, 500.33 kPa, x1 = 0.7498 | 5.7987 kg/m3 and 5.7985 kg/m3 and 5.7986 kg/m3
248.16 K, 580.7 kPa, x1 = 0.7498 | 6.7716 kg/m3 and 6.7717 kg/m3
248.16 K, 685.07 kPa, x1 = 0.7498 | 8.055 kg/m3 and 8.0552 kg/m3
248.16 K, 786.23 kPa, x1 = 0.7498 | 9.3205 kg/m3
248.16 K, 786.24 kPa, x1 = 0.7498 | 9.3204 kg/m3 and 9.3205 kg/m3
248.16 K, 835.59 kPa, x1 = 0.7498 | 9.9462 kg/m3
248.16 K, 835.6 kPa, x1 = 0.7498 | 9.946 kg/m3 and 9.9461 kg/m3
248.16 K, 859.93 kPa, x1 = 0.7498 | 10.2556 kg/m3
248.16 K, 859.95 kPa, x1 = 0.7498 | 10.2561 kg/m3 and 10.2559 kg/m3
248.16 K, 884.03 kPa, x1 = 0.7498 | 10.5636 kg/m3 and 10.5634 kg/m3 and 10.5637 kg/m3
248.17 K, 276.07 kPa, x1 = 0.7498 | 3.1457 kg/m3
248.17 K, 276.08 kPa, x1 = 0.7498 | 3.1457 kg/m3 and 3.1455 kg/m3
273.14 K, 124.74 kPa, x1 = 0.5069 | 1.6598 kg/m3 and 1.6598 kg/m3
273.14 K, 258.4 kPa, x1 = 0.5069 | 3.4826 kg/m3
273.15 K, 124.75 kPa, x1 = 0.5069 | 1.6598 kg/m3
273.15 K, 167.48 kPa, x1 = 0.2658 | 2.7681 kg/m3 and 2.7679 kg/m3
273.15 K, 167.49 kPa, x1 = 0.2658 | 2.7677 kg/m3
273.15 K, 218.01 kPa, x1 = 0.5069 | 2.9256 kg/m3
273.15 K, 218.04 kPa, x1 = 0.5069 | 2.9262 kg/m3
273.15 K, 218.06 kPa, x1 = 0.5069 | 2.9265 kg/m3
273.15 K, 242.18 kPa, x1 = 0.2658 | 4.0482 kg/m3 and 4.0482 kg/m3
273.15 K, 258.4 kPa, x1 = 0.5069 | 3.4831 kg/m3
273.15 K, 258.41 kPa, x1 = 0.5069 | 3.4831 kg/m3
273.15 K, 262.29 kPa, x1 = 0.5069 | 3.5352 kg/m3
273.15 K, 269.26 kPa, x1 = 0.5069 | 3.6315 kg/m3
273.15 K, 277.28 kPa, x1 = 0.5069 | 3.7427 kg/m3
273.15 K, 309 kPa, x1 = 0.5069 | 4.1836 kg/m3
273.15 K, 316.31 kPa, x1 = 0.5069 | 4.2857 kg/m3
273.15 K, 321.34 kPa, x1 = 0.5069 | 4.3577 kg/m3 and 4.3576 kg/m3
273.15 K, 321.35 kPa, x1 = 0.5069 | 4.3574 kg/m3
273.15 K, 323.08 kPa, x1 = 0.5069 | 4.3804 kg/m3
273.15 K, 340.33 kPa, x1 = 0.5069 | 4.6223 kg/m3
273.15 K, 340.34 kPa, x1 = 0.5069 | 4.6226 kg/m3
273.15 K, 340.36 kPa, x1 = 0.5069 | 4.6229 kg/m3
273.15 K, 344.34 kPa, x1 = 0.2658 | 5.85 kg/m3 and 5.8499 kg/m3 and 5.85 kg/m3
273.15 K, 401.7 kPa, x1 = 0.2658 | 6.8907 kg/m3 and 6.8903 kg/m3
273.15 K, 401.71 kPa, x1 = 0.2658 | 6.8904 kg/m3
273.15 K, 402.73 kPa, x1 = 0.5069 | 5.504 kg/m3
273.15 K, 406.4 kPa, x1 = 0.2658 | 6.9763 kg/m3
273.15 K, 406.45 kPa, x1 = 0.2658 | 6.9765 kg/m3 and 6.9764 kg/m3
273.15 K, 409.05 kPa, x1 = 0.5069 | 5.5939 kg/m3
273.15 K, 415.33 kPa, x1 = 0.5069 | 5.6832 kg/m3
273.15 K, 430.79 kPa, x1 = 0.2658 | 7.4249 kg/m3
273.15 K, 430.8 kPa, x1 = 0.2658 | 7.4251 kg/m3
273.15 K, 441.05 kPa, x1 = 0.5069 | 6.0518 kg/m3
273.15 K, 441.3 kPa, x1 = 0.5069 | 6.0554 kg/m3
273.15 K, 441.54 kPa, x1 = 0.5069 | 6.0588 kg/m3
273.15 K, 453.5 kPa, x1 = 0.5069 | 6.23 kg/m3
273.15 K, 453.52 kPa, x1 = 0.5069 | 6.23 kg/m3
273.15 K, 453.54 kPa, x1 = 0.5069 | 6.2304 kg/m3
273.15 K, 486.09 kPa, x1 = 0.2658 | 8.458 kg/m3 and 8.4582 kg/m3
273.15 K, 486.1 kPa, x1 = 0.2658 | 8.4581 kg/m3
273.15 K, 491.06 kPa, x1 = 0.5069 | 6.7718 kg/m3
273.15 K, 491.73 kPa, x1 = 0.2658 | 8.5643 kg/m3 and 8.5641 kg/m3 and 8.564 kg/m3
273.15 K, 497.16 kPa, x1 = 0.5069 | 6.8601 kg/m3
273.15 K, 500.88 kPa, x1 = 0.7498 | 5.2229 kg/m3
273.15 K, 500.89 kPa, x1 = 0.7498 | 5.2229 kg/m3
273.15 K, 503.23 kPa, x1 = 0.5069 | 6.9481 kg/m3
273.15 K, 506.92 kPa, x1 = 0.5069 | 7.0016 kg/m3
273.15 K, 506.93 kPa, x1 = 0.5069 | 7.0019 kg/m3
273.15 K, 506.95 kPa, x1 = 0.5069 | 7.0022 kg/m3
273.15 K, 537.7 kPa, x1 = 0.2658 | 9.4418 kg/m3 and 9.4416 kg/m3
273.15 K, 537.71 kPa, x1 = 0.2658 | 9.4418 kg/m3
273.15 K, 554.75 kPa, x1 = 0.5069 | 7.701 kg/m3
273.15 K, 555.81 kPa, x1 = 0.5069 | 7.717 kg/m3
273.15 K, 556.85 kPa, x1 = 0.5069 | 7.7324 kg/m3
273.15 K, 562.21 kPa, x1 = 0.2658 | 9.9156 kg/m3 and 9.9157 kg/m3
273.15 K, 568.57 kPa, x1 = 0.2658 | 10.0393 kg/m3 and 10.0391 kg/m3
273.15 K, 607.74 kPa, x1 = 0.5069 | 8.4834 kg/m3
273.15 K, 607.75 kPa, x1 = 0.5069 | 8.4836 kg/m3
273.15 K, 607.76 kPa, x1 = 0.5069 | 8.484 kg/m3
273.15 K, 608.84 kPa, x1 = 0.2658 | 10.8308 kg/m3 and 10.8306 kg/m3
273.15 K, 611.36 kPa, x1 = 0.5069 | 8.5381 kg/m3
273.15 K, 612.13 kPa, x1 = 0.5069 | 8.5492 kg/m3
273.15 K, 612.89 kPa, x1 = 0.5069 | 8.5606 kg/m3
273.15 K, 615.59 kPa, x1 = 0.2658 | 10.9646 kg/m3 and 10.9644 kg/m3 and 10.9642 kg/m3
273.15 K, 619.26 kPa, x1 = 0.5069 | 8.6551 kg/m3
273.15 K, 625.49 kPa, x1 = 0.5069 | 8.7476 kg/m3
273.15 K, 631.66 kPa, x1 = 0.5069 | 8.8402 kg/m3
273.15 K, 652.39 kPa, x1 = 0.2658 | 11.7012 kg/m3
273.15 K, 652.4 kPa, x1 = 0.2658 | 11.7011 kg/m3
273.15 K, 659.32 kPa, x1 = 0.2658 | 11.841 kg/m3 and 11.8409 kg/m3 and 11.8406 kg/m3
273.15 K, 699.84 kPa, x1 = 0.5069 | 9.8667 kg/m3
273.15 K, 701.3 kPa, x1 = 0.5069 | 9.889 kg/m3
273.15 K, 701.31 kPa, x1 = 0.5069 | 9.8889 kg/m3
273.15 K, 701.32 kPa, x1 = 0.5069 | 9.8887 kg/m3
273.15 K, 705.89 kPa, x1 = 0.5069 | 9.9581 kg/m3
273.15 K, 711.37 kPa, x1 = 0.5069 | 10.0422 kg/m3
273.15 K, 711.71 kPa, x1 = 0.5069 | 10.0475 kg/m3
273.15 K, 711.89 kPa, x1 = 0.5069 | 10.0504 kg/m3
273.15 K, 712.05 kPa, x1 = 0.5069 | 10.0527 kg/m3
273.15 K, 776.08 kPa, x1 = 0.5069 | 11.034 kg/m3
273.15 K, 781.94 kPa, x1 = 0.5069 | 11.1239 kg/m3
273.15 K, 787.74 kPa, x1 = 0.5069 | 11.2144 kg/m3
273.15 K, 802.95 kPa, x1 = 0.5069 | 11.451 kg/m3
273.15 K, 803.19 kPa, x1 = 0.5069 | 11.4546 kg/m3
273.15 K, 803.43 kPa, x1 = 0.5069 | 11.4585 kg/m3
273.15 K, 829.51 kPa, x1 = 0.5069 | 11.8643 kg/m3
273.15 K, 829.52 kPa, x1 = 0.5069 | 11.8644 kg/m3 and 11.8643 kg/m3
273.15 K, 883.12 kPa, x1 = 0.5069 | 12.7095 kg/m3
273.15 K, 888.99 kPa, x1 = 0.5069 | 12.8025 kg/m3
273.15 K, 894.82 kPa, x1 = 0.5069 | 12.8951 kg/m3
273.15 K, 899.8 kPa, x1 = 0.7498 | 9.5967 kg/m3 and 9.5966 kg/m3
273.15 K, 899.82 kPa, x1 = 0.7498 | 9.5965 kg/m3
273.15 K, 907.75 kPa, x1 = 0.5069 | 13.1005 kg/m3
273.15 K, 907.76 kPa, x1 = 0.5069 | 13.1006 kg/m3
273.15 K, 929.46 kPa, x1 = 0.5069 | 13.4491 kg/m3
273.15 K, 930.26 kPa, x1 = 0.5069 | 13.4619 kg/m3

Source: the NIST ThermoML archive (doi:10.1016/j.jct.2016.03.035)
